From US20050208496A1, “Methods of testing for bronchial asthma or chronic obstructive pulmonary disease” (Genox Research, Inc., priority 2002, published 2005)

System: mouse counterpart genes
Experiment: Mouse GeneChip (MG-U74A to MG-U74C) analysis of lung and trachea of the OVA antigen-exposed bronchial hypersensitivity model, S-Sal group versus S-OVA group
Type: in vivo
[1] = S-Sal group vs S-OVA group, chip B, 1st
[2] = S-Sal group vs S-OVA group, chip B, 2nd
[3] = S-Sal group vs S-OVA group, chip B, 3rd
[4] = S-Sal group vs S-OVA group, chip C, 1st
[5] = S-Sal group vs S-OVA group, chip C, 2nd
[6] = S-Sal group vs S-OVA group, chip C, 3rd
[7] = S-Sal vs S-OVA group, 1st, P/A: A
[8] = S-Sal vs S-OVA group, 1st, P/A: M
[9] = S-Sal vs S-OVA group, 1st, P/A: P
[10] = S-Sal vs S-OVA group, 2nd, P/A: A
[11] = S-Sal vs S-OVA group, 2nd, P/A: P

Substance: ovalbumin [OVA antigen, ovalbumin antigen used for sensitization and inhalation to induce bronchial hypersensitivity in mice]
- Fold Change, SAM domain and HD domain, 1 (mouse Probe ID 109915_at) [1]: 1.2
- Fold Change, Similar to dihydropyrimidine dehydrogenase, clone MGC: 37940 (mouse Probe ID 111949_at) [1]: 0.588
- Fold Change, Similar to guanylate nucleotide binding protein 3, clone MGC: 6385 (mouse Probe ID 107939_at) [1]: 1.9
- Fold Change, procollagen lysine, 2-oxoglutarate 5-dioxygenase 2 (mouse Probe ID 114376_at) [1]: 0.833
- Fold Change, thioredoxin reductase 1 (mouse Probe ID 162642_at) [1]: 0.323
- Fold Change, ESTs AI844322 (mouse Probe ID 110469_at) [2]: 0.833
- Fold Change, RIKEN cDNA 2610017M01 gene (mouse Probe ID 105606_at) [2]: 0.5
- Fold Change, RIKEN cDNA 2610017M01 gene (mouse Probe ID 163053_at) [2]: 0.833
- Fold Change, SAM domain and HD domain, 1 (mouse Probe ID 109915_at) [2]: 0.303
- Fold Change, Similar to dihydropyrimidine dehydrogenase, clone MGC: 37940 (mouse Probe ID 111949_at) [2]: 0.588
- Fold Change, Similar to guanylate nucleotide binding protein 3, clone MGC: 6385 (mouse Probe ID 107939_at) [2]: 1.2
- Fold Change, growth arrest and DNA-damage-inducible 45 gamma (mouse Probe ID 109336_at) [2]: 1.7
- Fold Change, procollagen lysine, 2-oxoglutarate 5-dioxygenase 2 (mouse Probe ID 114376_at) [2]: 1.1
- Fold Change, thioredoxin reductase 1 (mouse Probe ID 162642_at) [2]: 2.8
- Fold Change, RIKEN cDNA 2610017M01 gene (mouse Probe ID 105606_at) [3]: 0.667
- Fold Change, RIKEN cDNA 2610017M01 gene (mouse Probe ID 163053_at) [3]: 1.2
- Fold Change, SAM domain and HD domain, 1 (mouse Probe ID 109915_at) [3]: 1.1
- Fold Change, Similar to dihydropyrimidine dehydrogenase, clone MGC: 37940 (mouse Probe ID 111949_at) [3]: 0.833
- Fold Change, Similar to guanylate nucleotide binding protein 3, clone MGC: 6385 (mouse Probe ID 107939_at) [3]: 0.833
- Fold Change, thioredoxin reductase 1 (mouse Probe ID 162642_at) [3]: 0.588
- Fold Change, RIKEN cDNA 6330404C01 gene (mouse Probe ID 166590_at) [4]: 2
- Fold Change, expressed sequence AV022454 (mouse Probe ID 165678_i_at) [4]: 1.3
- Fold Change, interferon-induced protein with tetratricopeptide repeats 1 (mouse Probe ID 168299_f_at) [4]: 1.3
- Fold Change, small inducible cytokine subfamily B (Cys-X-Cys), member 11 (mouse Probe ID 140659_at) [4]: 3.8
- Fold Change, RIKEN cDNA 6330404C01 gene (mouse Probe ID 166590_at) [5]: 1
- Fold Change, expressed sequence AV022454 (mouse Probe ID 165678_i_at) [5]: 1.3
- Fold Change, hydroxysteroid (17-beta) dehydrogenase 2 (mouse Probe ID 166141_i_at) [5]: 0.526
- Fold Change, interferon-induced protein with tetratricopeptide repeats 1 (mouse Probe ID 168299_f_at) [5]: 1.1
- Fold Change, sialyltransferase 1 (beta-galactoside alpha-2,6-sialyltransferase) (mouse Probe ID 167200_r_at) [5]: 1.6
- Fold Change, small inducible cytokine subfamily B (Cys-X-Cys), member 11 (mouse Probe ID 140659_at) [5]: 2
- Fold Change, expressed sequence AV022454 (mouse Probe ID 165678_i_at) [6]: 2.2
- Fold Change, hydroxysteroid (17-beta) dehydrogenase 2 (mouse Probe ID 166141_i_at) [6]: 1.9
- Fold Change, hydroxysteroid (17-beta) dehydrogenase 2 (mouse Probe ID 169670_at) [6]: 0.385
- Fold Change, interferon-induced protein with tetratricopeptide repeats 1 (mouse Probe ID 168299_f_at) [6]: 1.2
- Fold Change, small inducible cytokine subfamily B (Cys-X-Cys), member 11 (mouse Probe ID 140659_at) [6]: 1
- Fold Change, DNA-damage inducible transcript 3 (mouse Probe ID 101429_at) [7]: 0.37
- Fold Change, RAS guanyl releasing protein 1 (mouse Probe ID 98307_at) [7]: 0.5
- Fold Change, RAS guanyl releasing protein 1 (mouse Probe ID 167498_i_at) [7]: 0.833
- Fold Change, RIKEN cDNA A2301D9K23 gene (mouse Probe ID 163453_at) [7]: 1.6
- Fold Change, RIKEN cDNA A2301D9K23 gene (mouse Probe ID 166475_r_at) [7]: 1.2
- Fold Change, acid phosphatase 5, tartrate resistant (mouse Probe ID 162543_r_at) [7]: 4.3
- Fold Change, cathepsin C (mouse Probe ID 101020_at) [7]: 1.8
- Fold Change, cathepsin C (mouse Probe ID 161251_f_at) [7]: 0.667
- Fold Change, cytokine inducible SH2-containing protein 1 (mouse Probe ID 92832_at) [7]: 1.6
- Fold Change, dual specificity phosphatase 14 (mouse Probe ID 165144_r_at) [7]: 0.5
- Fold Change, dual specificity phosphatase 14 (mouse Probe ID 171285_at) [7]: 1.7
- Fold Change, fetuin beta (mouse Probe ID 108524_at) [7]: 1.2
- Fold Change, keratin complex 1, acidic, gene 16 (mouse Probe ID 103589_at) [7]: 1.8
- Fold Change, keratin complex 1, acidic, gene 16 (mouse Probe ID 164428_i_at) [7]: 1.5
- Fold Change, nuclear factor, interleukin 3, regulated (mouse Probe ID 164758_i_at) [7]: 1.4
- Fold Change, serine (or cysteine) proteinase inhibitor, clade B (ovalbumin), member 2 (mouse Probe ID 137166_r_at) [7]: 0.667
- Fold Change, transmembrane 4 superfamily member 8 (mouse Probe ID 97912_at) [7]: 3.6
- Fold Change, ubiquitin D (mouse Probe ID 169362_f_at) [7]: 1.2
- Fold Change, neutrophil cytosolic factor 2 (mouse Probe ID 102326_at) [8]: 2
- Fold Change, ubiquitin fusion degradation 1 like (mouse Probe ID 93303_at) [8]: 0.567
- Fold Change, DEAD (aspartate-glutamate-alanine-aspartate) box polypeptide 5 (mouse Probe ID 93493_at) [9]: 1
- Fold Change, DEAD (aspartate-glutamate-alanine-aspartate) box polypeptide 5 (mouse Probe ID 113899_at) [9]: 0.909
- Fold Change, RIKEN cDNA 4933419D20 gene (mouse Probe ID 97442_at) [9]: 1.2
- Fold Change, RIKEN cDNA 4933419D20 gene (mouse Probe ID 112237_at) [9]: 1.1
- Fold Change, cathepsin C (mouse Probe ID 101019_at) [9]: 1.2
- Fold Change, dual specificity phosphatase 14 (mouse Probe ID 162702_at) [9]: 1.2
- Fold Change, expressed sequence AI463430 (mouse Probe ID 112883_at) [9]: 1
- Fold Change, fatty acid binding protein 4, adipocyte (mouse Probe ID 100567_at) [9]: 0.556
- Fold Change, integrin-associated protein (mouse Probe ID 103611_at) [9]: 1
- Fold Change, ribosomal protein S16 (mouse Probe ID 97647_at) [9]: 1
- Fold Change, ribosomal protein S16 (mouse Probe ID 169860_r_at) [9]: 33
- Fold Change, serine (or cysteine) proteinase inhibitor, clade B (ovalbumin), member 2 (mouse Probe ID 92978_s_at) [9]: 2.1
- Fold Change, serine (or cysteine) proteinase inhibitor, clade B (ovalbumin), member 6 (mouse Probe ID 96060_at) [9]: 1.1
- Fold Change, signal transducer and activator of transcription 1 (mouse Probe ID 101465_at) [9]: 1.8
- Fold Change, signal transducer and activator of transcription 1 (mouse Probe ID 114635_at) [9]: 2
- Fold Change, ubiquitin D (mouse Probe ID 168938_r_at) [9]: 1.4
- Fold Change, DNA-damage inducible transcript 3 (mouse Probe ID 101429_at) [10]: 0.526
- Fold Change, RAS guanyl releasing protein 1 (mouse Probe ID 167498_i_at) [10]: 1.6
- Fold Change, RIKEN cDNA A2301D9K23 gene (mouse Probe ID 163453_at) [10]: 1.4
- Fold Change, RIKEN cDNA A2301D9K23 gene (mouse Probe ID 166475_r_at) [10]: 0.556
- Fold Change, acid phosphatase 5, tartrate resistant (mouse Probe ID 162543_r_at) [10]: 6.8
- Fold Change, cathepsin C (mouse Probe ID 101020_at) [10]: 0.625
- Fold Change, cathepsin C (mouse Probe ID 161251_f_at) [10]: 1
- Fold Change, cytokine inducible SH2-containing protein 1 (mouse Probe ID 92832_at) [10]: 1.9
- Fold Change, dual specificity phosphatase 14 (mouse Probe ID 165144_r_at) [10]: 0.833
- Fold Change, fetuin beta (mouse Probe ID 108524_at) [10]: 0.278
- Fold Change, keratin complex 1, acidic, gene 16 (mouse Probe ID 103589_at) [10]: 1.3
- Fold Change, keratin complex 1, acidic, gene 16 (mouse Probe ID 164428_i_at) [10]: 1.6
- Fold Change, ribosomal protein S16 (mouse Probe ID 169860_r_at) [10]: 1.4
- Fold Change, serine (or cysteine) proteinase inhibitor, clade B (ovalbumin), member 2 (mouse Probe ID 137166_r_at) [10]: 0.667
- Fold Change, transmembrane 4 superfamily member 8 (mouse Probe ID 97912_at) [10]: 1
- Fold Change, ubiquitin D (mouse Probe ID 92715_at) [10]: 0.455
- Fold Change, ubiquitin D (mouse Probe ID 168938_r_at) [10]: 0.667
- Fold Change, ubiquitin D (mouse Probe ID 169362_f_at) [10]: 1
- Fold Change, ubiquitin fusion degradation 1 like (mouse Probe ID 93303_at) [10]: 0.303
- Fold Change, RAS guanyl releasing protein 1 (mouse Probe ID 98307_at) (S-Sal vs S-OVA group, 2nd, P/A: M): 1.7
- Fold Change, DEAD (aspartate-glutamate-alanine-aspartate) box polypeptide 5 (mouse Probe ID 93493_at) [11]: 1
- Fold Change, DEAD (aspartate-glutamate-alanine-aspartate) box polypeptide 5 (mouse Probe ID 113899_at) [11]: 0.714
- Fold Change, RIKEN cDNA 4933419D20 gene (mouse Probe ID 97442_at) [11]: 1
- Fold Change, RIKEN cDNA 4933419D20 gene (mouse Probe ID 112237_at) [11]: 1
- Fold Change, acid phosphatase 5, tartrate resistant (mouse Probe ID 98859_at) [11]: 1.4
